Laboratory results: ChEMBL document CHEMBL5226341, “Discovery of a Potent FLT3 Inhibitor (LT-850-166) with the Capacity of Overcoming a Variety of FLT3 Mutations” (J Med Chem, 2021)
pIC50: −log10 of the molar value.

How the values were obtained:
[1] = biological target: Receptor-type tyrosine-protein kinase FLT3 (Homo sapiens, UniProt P36888, ITD); experiment: Inhibition of human FLT3-ITD mutant preincubated with enzyme for 20 mins followed by [gamma-33P]ATP addition and measured after 120 mins by filter binding method
Chain of Receptor-type tyrosine-protein kinase FLT3 (P36888 whole entry, looked up, stated change not applied): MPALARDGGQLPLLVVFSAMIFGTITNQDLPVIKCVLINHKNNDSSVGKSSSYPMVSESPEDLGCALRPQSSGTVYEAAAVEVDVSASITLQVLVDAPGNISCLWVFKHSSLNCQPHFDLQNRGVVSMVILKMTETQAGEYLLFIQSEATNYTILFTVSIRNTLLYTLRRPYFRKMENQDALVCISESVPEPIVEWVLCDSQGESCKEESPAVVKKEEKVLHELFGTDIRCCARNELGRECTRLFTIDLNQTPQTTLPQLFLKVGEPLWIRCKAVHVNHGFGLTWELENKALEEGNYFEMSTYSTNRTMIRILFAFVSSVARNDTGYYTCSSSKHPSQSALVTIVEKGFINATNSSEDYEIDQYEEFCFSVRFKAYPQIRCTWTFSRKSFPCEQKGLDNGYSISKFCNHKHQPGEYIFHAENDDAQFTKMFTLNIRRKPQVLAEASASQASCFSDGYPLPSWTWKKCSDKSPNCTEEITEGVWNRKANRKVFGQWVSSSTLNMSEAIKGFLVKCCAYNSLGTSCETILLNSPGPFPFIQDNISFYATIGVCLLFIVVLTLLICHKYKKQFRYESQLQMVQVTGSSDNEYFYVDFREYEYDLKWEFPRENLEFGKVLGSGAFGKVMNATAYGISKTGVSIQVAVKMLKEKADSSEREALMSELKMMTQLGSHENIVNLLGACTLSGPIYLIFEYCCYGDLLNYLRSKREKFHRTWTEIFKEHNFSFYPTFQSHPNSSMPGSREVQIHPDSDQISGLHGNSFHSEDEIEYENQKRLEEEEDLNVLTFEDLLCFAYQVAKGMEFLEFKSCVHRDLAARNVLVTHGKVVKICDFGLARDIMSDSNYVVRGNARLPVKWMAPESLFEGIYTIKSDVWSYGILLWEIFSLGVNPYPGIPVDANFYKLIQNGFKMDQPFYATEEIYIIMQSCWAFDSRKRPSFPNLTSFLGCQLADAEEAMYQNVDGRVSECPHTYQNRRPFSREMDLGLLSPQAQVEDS

[2] = test system: MV4-11; experiment: Antiproliferative activity against human MV4-11 cells assessed as inhibition of cell growth incubated for 72 hrs by CellTiterGlo luminescent assay; type: functional, cell-based; conditions: MV4-11, 72 h
[3] = test system: BaF3; experiment: Antiproliferative activity against mouse BaF3 cells harboring FLT3-ITD-F691L mutant assessed as residual cell viability at 0.1 uM incubated for 72 hrs by CellTiterGlo luminescent assay; type: functional
[4] = test system: BaF3; experiment: Antiproliferative activity against mouse BaF3 cells harboring FLT3-ITD-F691L mutant assessed as reduction in cell viability incubated for 72 hrs by CellTiterGlo luminescent assay; type: functional, cell-based; conditions: BaF3, 72 h
[5] = Antiproliferative activity against mouse BaF3 cells assessed as reduction in cell viability measured after 72 hrs by CellTiterGlo luminescent assay; type: toxicity, cell-based
[6] = test system: BaF3; experiment: Antiproliferative activity against mouse BaF3 cells harboring FLT3-ITD mutant assessed as reduction in cell viability measured after 72 hrs by CellTiterGlo luminescent assay; type: functional, cell-based; conditions: BaF3, 72 h
[7] = test system: BaF3; type: functional, cell-based; conditions: Mus musculus, BaF3, 72 h
[8] = test system: BaF3; experiment: Antiproliferative activity against mouse BaF3 cells harboring FLT3-ITD-Y842H mutant assessed as reduction in cell viability measured after 72 hrs by CellTiterGlo luminescent assay; type: functional, cell-based; conditions: BaF3, 72 h
[9] = test system: BaF3; experiment: Antiproliferative activity against mouse BaF3 cells harboring FLT3-ITD-N676D mutant assessed as reduction in cell viability measured after 72 hrs by CellTiterGlo luminescent assay; type: functional, cell-based; conditions: BaF3, 72 h
[10] = test system: BaF3; experiment: cells; conditions: Mus musculus, BaF3, 72 h
Description: Antiproliferative activity against mouse BaF3 cells harboring FLT3-ITD-D835V mutant assessed as reduction in cell viability measured after 72 hrs by CellTiterGlo luminescent assay

[11] = test system: BaF3; experiment: Antiproliferative activity against mouse BaF3 cells harboring FLT3-ITD-F691L mutant assessed as residual cell viability at 10 nM incubated for 72 hrs by CellTiterGlo luminescent assay; type: functional
[12] = test system: BaF3; experiment: Antiproliferative activity against mouse BaF3 cells harboring FLT3-ITD-F691L mutant assessed as residual cell viability at 50 nM incubated for 72 hrs by CellTiterGlo luminescent assay; type: functional
[13] = test system: MV4-11; experiment: Antitumor activity against human MV4-11 cells xenografted in BALB/c mouse assessed as tumor growth inhibition at 30 mg/kg, iv QD for 21 days by vernier caliper analysis; type: functional; conditions: MV4-11, 504 h, time 21 day, read-out: TGI
[14] = test system: MV4-11; experiment: Antitumor activity against human MV4-11 cells xenografted in BALB/c mouse assessed as inhibition rate of tumor weight at 30 mg/kg, iv QD for 21 days by vernier caliper analysis; type: functional; conditions: MV4-11, 504 h, time 21 day
[15] = Toxicity in BALB/c mouse xenografted with human MV4-11 cells assessed as mortality at 30 mg/kg, iv QD for 10 days; type: organism-based; conditions: in vivo, 240 h, time 10 day

| SMILES | pIC50 [1] | pIC50 [2] | Activity [3] | Activity [11] | also measured |
| --- | --- | --- | --- | --- | --- |
| CC(C)(C)c1cc(NC(=O)Nc2ccc(-c3cn4c(n3)sc3cc(OCCN5CCOCC5)ccc34)cc2)no1 [QUIZARTINIB] |  |  |  |  | pIC50 [4]: 6.88; IC50 at 72 h [5]: > 1000 nM; pIC50 [6]: 8.45; pIC50 [7]: 7.57; pIC50 [8]: 7.82; pIC50 [9]: 8.27; pIC50 [10]: 7.30 |
| O=C(Nc1cc(-c2ccc3ncn(Cc4ccccc4)c3c2)[nH]n1)c1ccccc1 | 7.89 | 6.66 |  |  |  |
| CN1CCN(Cc2ccc(NC(=O)c3n[nH]cc3Nc3ncnc4[nH]ccc34)cc2)CC1 | 8.77 | 8.20 |  |  | pIC50 [4]: 8.12 |
| CN1CCN(c2ccc(C(=O)Nc3cc(-c4ccc5ncn(Cc6ccccc6Cl)c5c4)[nH]n3)cc2)CC1 |  | 7.52 | 20.29% |  | pIC50 [4]: 7.08 |
| O=C(Nc1cc(-c2ccc3ncn(Cc4c(Cl)cccc4Cl)c3c2)[nH]n1)c1ccc(N2CC3CC2CN3)cc1 (stereo not given) |  | 8.65 |  | 103.48% |  |
| CCN1CCN(c2ccc(C(=O)Nc3cc(-c4ccc5ncn(Cc6cc(F)ccc6Cl)c5c4)[nH]n3)cc2)CC1 |  | 7.90 |  | 107.7% | Activity [12]: 49.36% |
| O=C(Nc1cc(-c2ccc3ncn(Cc4c(Cl)cccc4Cl)c3c2)[nH]n1)c1ccc(N2CC3CC2CO3)cc1 (stereo not given) |  | 8.54 |  | 88.75% |  |
| CCN1CCN(c2ccc(C(=O)Nc3cc(-c4ccc5ncn(Cc6cccc(F)c6Cl)c5c4)[nH]n3)cc2)CC1 |  | 7.90 |  | 101.05% | Activity [12]: 47.53% |
| O=C(Nc1cc(-c2ccc3ncn(Cc4c(Cl)cccc4Cl)c3c2)[nH]n1)c1ccc(N2CCOCC2)cc1 |  | 8.44 |  | 109.68% |  |
| COCCNc1ccc(C(=O)Nc2cc(-c3ccc4ncn(Cc5c(Cl)cccc5Cl)c4c3)[nH]n2)cc1 |  | 8.20 |  | 84.97% |  |
| CN1CCCN(c2ccc(C(=O)Nc3cc(-c4ccc5ncn(Cc6c(Cl)cccc6Cl)c5c4)[nH]n3)cc2)CC1 |  | 8.86 |  | 107.43% |  |
| CCN1CCN(c2ccc(C(=O)Nc3cc(-c4ccc5ncn(Cc6c(C)cccc6C)c5c4)[nH]n3)cc2)CC1 |  | 8.31 |  | 103.84% | Activity [12]: 4.57% |
| CN1CCC(C(=O)Nc2cc(-c3ccc4ncn(Cc5ccccc5)c4c3)[nH]n2)CC1 | 6.40 | 5.77 |  |  |  |
| O=C(Nc1cc(-c2ccc3ncn(Cc4ccccc4Cl)c3c2)[nH]n1)c1ccc(N2CCOCC2)cc1 |  | 8.04 | 16.59% |  | pIC50 [4]: 7.19 |
| O=C(Nc1cc(-c2ccc3ncn(Cc4ccccc4Cl)c3c2)[nH]n1)c1ccc(N2CCNCC2)cc1 |  | 7.86 | 14.55% |  | pIC50 [4]: 7.22 |
| CCN1CCN(c2ccc(C(=O)Nc3cc(-c4ccc5ncn(Cc6c(Cl)cccc6Cl)c5c4)[nH]n3)cn2)CC1 |  | 8.49 |  | 102.56% |  |
| Nc1ccn([C@@H]2O[C@H](CO)[C@@H](O)[C@@H]2O)c(=O)n1 [CYTARABINE] |  |  |  |  | inhibition in vivo at 30 mg/kg [13]: 66%; inhibition in vivo at 30 mg/kg [14]: 50.6%; Activity [15]: Toxic |
| CCN1CCN(c2ccc(C(=O)Nc3cc(-c4ccc5ncn(Cc6c(F)cccc6Cl)c5c4)[nH]n3)cc2)CC1 |  | 8.58 |  | 101.37% | Activity [12]: 21.63% |
| CN(C)CCNc1ccc(C(=O)Nc2cc(-c3ccc4ncn(Cc5c(Cl)cccc5Cl)c4c3)[nH]n2)cc1 |  | 8.50 |  | 101.71% |  |
| CN(C)CCN(C)c1ccc(C(=O)Nc2cc(-c3ccc4ncn(Cc5c(Cl)cccc5Cl)c4c3)[nH]n2)cc1 |  | 8.56 |  | 102.83% |  |
| CN1CCN(c2ccc(C(=O)Nc3cc(-c4ccc5ncn(Cc6c(Cl)cccc6Cl)c5c4)[nH]n3)cc2)CC1=O |  | 8.58 |  | 104.57% |  |
| CCN1CCN(c2ncc(C(=O)Nc3cc(-c4ccc5ncn(Cc6c(Cl)cccc6Cl)c5c4)[nH]n3)cn2)CC1 |  | 7.90 |  | 111.76% |  |
| CCN1CCN(c2ccc(C(=O)Nc3cc(-c4ccc5ncn(Cc6ccccc6Cl)c5c4)[nH]n3)cc2)CC1 |  | 7.91 | 1.72% | 90.16% | Activity [12]: 19.95%; pIC50 [4]: 7.53 |
| CC(=O)N1CCN(c2ccc(C(=O)Nc3cc(-c4ccc5ncn(Cc6c(Cl)cccc6Cl)c5c4)[nH]n3)cc2)CC1 |  | 8.96 |  | 103.45% |  |

Continued, in another order:

| pIC50 [1] | pIC50 [2] | SMILES | Activity [3] | Activity [11] | also measured |
| --- | --- | --- | --- | --- | --- |
| 8.44 | 6.66 | CN1CCC(Nc2ccc(C(=O)Nc3cc(-c4ccc5ncn(Cc6ccc(Cl)cc6)c5c4)[nH]n3)cc2)CC1 | 101.73% |  |  |
| 7.95 | 7.00 | CN1CCC(Nc2ccc(C(=O)Nc3cc(-c4ccc5ncn(Cc6ccccc6)c5c4)[nH]n3)c(F)c2)CC1 |  |  |  |
| 7.85 |  | CN1CCC(Nc2ccc(C(=O)Nc3cc(-c4ccc5nccnc5c4)[nH]n3)cc2)CC1 |  |  |  |
| 8.94 | 7.17 | CN1CCC(Nc2ccc(C(=O)Nc3cc(-c4ccc5ncn(C6CCCC6)c5c4)[nH]n3)cc2)CC1 | 97.57% |  |  |
| 8.69 | 7.12 | CN1CCC(Nc2ccc(C(=O)Nc3cc(-c4ccc5ccn(Cc6ccccc6)c5c4)[nH]n3)cc2)CC1 |  |  |  |
|  | 9.11 | CN1CCC(Nc2ccc(C(=O)Nc3cc(-c4ccc5ncn(Cc6c(Cl)cccc6Cl)c5c4)[nH]n3)cc2)CC1 |  | 104.29% |  |
| 8.45 |  | CN1CCC(Nc2ccc(C(=O)Nc3cc(-c4ccc5ncn(C6CC6)c5c4)[nH]n3)cc2)CC1 |  |  |  |
| 8.49 | 7.73 | CN1CCC(Nc2ccc(C(=O)Nc3cc(-c4ccc5ncn(Cc6cccc(F)c6)c5c4)[nH]n3)cc2)CC1 | 97.08% |  |  |
| 8.12 |  | CC(C)n1cnc2ccc(-c3cc(NC(=O)c4ccc(NC5CCN(C)CC5)cc4)n[nH]3)cc21 |  |  |  |
| 7.79 |  | CN1CCC(Nc2ccc(C(=O)Nc3cc(-c4ccc5ncn(Cc6ccncc6)c5c4)[nH]n3)cc2)CC1 |  |  |  |
| 8.04 | 7.06 | Cc1cc(NC2CCN(C)CC2)ccc1C(=O)Nc1cc(-c2ccc3ncn(Cc4ccccc4)c3c2)[nH]n1 |  |  |  |
| 7.63 |  | CN1CCC(Nc2ccc(C(=O)Nc3cc(-c4cccc5c4ncn5C)[nH]n3)cc2)CC1 |  |  |  |
| 8.41 |  | CN1CCC(Nc2ccc(C(=O)Nc3cc(-c4ccc5ncn(CC6CCCCC6)c5c4)[nH]n3)cc2)CC1 |  |  |  |
| 8.34 | 7.63 | CN1CCC(Nc2ccc(C(=O)Nc3cc(-c4ccc5ncn(Cc6ccc(F)cc6)c5c4)[nH]n3)cc2)CC1 | 100.93% |  |  |
| 9.07 | 7.60 | CN1CCC(Nc2ccc(C(=O)Nc3cc(-c4ccc5ncn(Cc6ccccc6Cl)c5c4)[nH]n3)cc2)CC1 | 40.17% |  |  |
| 9.03 | 7.18 | CN1CCC(Nc2ccc(C(=O)Nc3cc(-c4ccc5ncn(Cc6cccc(Cl)c6)c5c4)[nH]n3)cc2)CC1 | 100.75% |  |  |
| 8.42 | 7.49 | CN1CCC(Nc2ccc(C(=O)Nc3cc(-c4ccc5ncn(Cc6ccccc6)c5c4)[nH]n3)cc2F)CC1 | 100.57% |  |  |
| 7.99 |  | CN1CCC(Nc2ccc(C(=O)Nc3cc(-c4ccc5ncccc5c4)[nH]n3)cc2)CC1 |  |  |  |
| 8.74 |  | CN1CCC(Nc2ccc(C(=O)Nc3cc(-c4ccc5ncn(Cc6ccccc6)c5c4)[nH]n3)cc2)CC1 | 96.22% |  |  |
| 8.43 | 7.32 | Cc1cc(C(=O)Nc2cc(-c3ccc4ncn(Cc5ccccc5)c4c3)[nH]n2)ccc1NC1CCN(C)CC1 | 99.36% |  |  |
| 8.85 | 7.25 | CN1CCC(Nc2ccc(C(=O)Nc3cc(-c4ccc5ncn(Cc6ccsc6)c5c4)[nH]n3)cc2)CC1 | 108.58% |  |  |
| 8.41 |  | CN1CCC(Nc2ccc(C(=O)Nc3cc(-c4ccc5ncn([C@H]6CC[C@H](N)CC6)c5c4)[nH]n3)cc2)CC1 |  |  |  |
| 9.03 | 7.53 | Cc1ccccc1Cn1cnc2ccc(-c3cc(NC(=O)c4ccc(NC5CCN(C)CC5)cc4)n[nH]3)cc21 | 86.49% |  |  |
| 8.30 |  | CN1CCC(Nc2ccc(C(=O)Nc3cc(-c4ccc5ncn(-c6ccccc6)c5c4)[nH]n3)cc2)CC1 |  |  |  |
| 8.30 | 7.23 | CN1CCC(Nc2ccc(C(=O)Nc3cc(-c4ccc5c(c4)ncn5Cc4ccccc4)[nH]n3)cc2)CC1 |  |  |  |
| 8.12 |  | CN1CCC(Nc2ccc(C(=O)Nc3cc(-c4ccc5ncn(C)c5c4)[nH]n3)cc2)CC1 |  |  |  |
| 8.24 |  | CN1CCC(Nc2ccc(C(=O)Nc3cc(-c4ccc5ncn(C6CCOCC6)c5c4)[nH]n3)cc2)CC1 |  |  |  |
| 9.15 | 7.47 | COc1ccccc1Cn1cnc2ccc(-c3cc(NC(=O)c4ccc(NC5CCN(C)CC5)cc4)n[nH]3)cc21 | 85.88% |  |  |
| 8.08 | 7.04 | CN1CCC(Nc2ccc(C(=O)Nc3cc(-c4ccc5ncn(Cc6ccccc6F)c5c4)[nH]n3)cc2)CC1 | 99.79% |  |  |
| 6.67 |  | CN1CCC(Nc2ccc(C(=O)Nc3cc(-c4cccc5ncn(C)c45)[nH]n3)cc2)CC1 |  |  |  |
